Measurements published in ChEMBL document CHEMBL3880421, “Indazole compounds and pharmaceutical compositions for inhibiting protein kinases, and methods for their use” (2003).

Tests used:
[1] = Terminal half life in B6 mouse at 50 mg/kg, po by UV-HPLC analysis; assay type: ADME, organism-based; settings: in vivo; for half-life: B6, mouse, read-out: beta t1/2 (converted); for beta t1/2: mouse, BLD = below limit of detection
[2] = Terminal half life in B6 mouse at 25 mg/kg, ip by UV-HPLC analysis; assay type: ADME, organism-based; settings: in vivo, read-out: beta t1/2 (converted)
[3] = Terminal half life in B6 mouse at 25 mg/kg, po by UV-HPLC analysis; assay type: ADME, organism-based; settings: B6, mouse, in vivo, read-out: beta t1/2 (converted)
[4] = Antiproliferative activity against VEGF-stimulated HUVEC cells assessed as reduction in cell viability at 10 nM preincubated for 1 hr followed by addition of VEGF measured after 72 hrs by MTT assay; assay type: functional; settings: Homo sapiens

Row | half-life [1] | half-life [2] | SMILES | inhibition at 0.01 µM [4] | also measured
1 | 3.4 h | 4 h | CCn1nc(C)cc1C(=O)Nc1cc(C(=O)c2ccc3c(/C=C/c4ccccn4)n[nH]c3c2)ccc1C |  | 
2 | 0.7 h | 0.3 h | Cc1cc(C(=O)Nc2cccc(C(=O)c3ccc4c(/C=C/c5ccccn5)n[nH]c4c3)c2)n[nH]1 |  | 
3 | 2.2 h | 2.2 h | O=C(c1cccc(NC(=O)c2ccccn2)c1)c1ccc2c(/C=C/c3ccccc3)n[nH]c2c1 |  | 
4 |  | 1.8 h | CCOCCNC(=O)c1ccccc1Sc1ccc2c(/C=C/c3ccccn3)n[nH]c2c1 |  | 
5 |  | 2.4 h | O=C(Nc1cccc(Oc2ccc3c(/C=C/c4ccccn4)n[nH]c3c2)c1)c1ccccc1 |  | 
6 | 1 h | 1.7 h | Cc1cc(C(=O)Nc2cccc(Oc3ccc4c(/C=C/c5ccccn5)n[nH]c4c3)c2)nn1C |  | 
7 | 1.2 h | 1.2 h | O=C(Nc1nccs1)c1ccccc1Sc1ccc2c(/C=C/c3ccccn3)n[nH]c2c1 |  | 
8 | 3.6 h | 3.8 h | O=C(NCc1ccccc1F)c1ccccc1Sc1ccc2c(/C=C/c3ccccn3)n[nH]c2c1 |  | 
9 | 0.8 h | 0.8 h | CC(C)NC(=O)c1ccccc1Sc1ccc2c(/C=C/c3ccccn3)n[nH]c2c1 |  | 
10 | 0.9 h | 1.4 h | C#CCNC(=O)c1ccccc1Sc1ccc2c(/C=C/c3ccccn3)n[nH]c2c1 |  | 
11 |  |  | CCn1nc(C)cc1C(=O)Nc1cccc(Oc2ccc3c(/C=C/c4ccccn4)n[nH]c3c2)c1.Cl |  | half-life [3]: 21 h
12 | 1.5 h | 2.8 h | O=C(c1cccc(NC(=O)c2cccc3[nH]ccc23)c1)c1ccc2c(/C=C/c3ccccn3)n[nH]c2c1 |  | 
13 | 0.9 h | 1.4 h | CCCNC(=O)c1ccccc1Sc1ccc2c(/C=C/c3ccccn3)n[nH]c2c1 |  | 
14 | 4.5 h | 1.3 h | C=CCONC(=O)c1ccccc1Sc1ccc2c(/C=C/c3ccccn3)n[nH]c2c1 |  | 
15 | 1.9 h | 3.2 h | Cn1nc(C(C)(C)C)cc1C(=O)Nc1cccc(C(=O)c2ccc3c(/C=C/c4ccccn4)n[nH]c3c2)c1 |  | 
16 | 0.7 h | 2.4 h | O=C(NCC(F)(F)F)c1ccccc1Sc1ccc2c(/C=C/c3ccccn3)n[nH]c2c1 |  | 
17 | 0.9 h | 3.2 h | CCNC(=O)c1ccccc1Sc1ccc2c(/C=C/c3ccccn3)n[nH]c2c1 |  | 
18 | 3 h | 3 h | Cc1ccc2cc(NC(=O)c3ccccc3Sc3ccc4c(/C=C/c5ccccn5)n[nH]c4c3)ccc2n1 |  | 
19 | 1 h | 0.9 h | O=C(NCC1CC1)c1ccccc1Sc1ccc2c(/C=C/c3ccccn3)n[nH]c2c1 |  | 
20 | 2 h | 5 h | O=C(Nc1cccc(C(=O)c2ccc3c(/C=C/c4ccccn4)n[nH]c3c2)c1)c1ccccc1 |  | 
21 | 4.9 h | 3.2 h | O=C(NC1CCC1)c1ccccc1Sc1ccc2c(/C=C/c3ccccn3)n[nH]c2c1 |  | 

Row | half-life [1] | half-life [2] | SMILES | inhibition at 0.01 µM [4] | also measured
22 |  |  | Cc1cc(C(=O)Nc2cccc(C(=O)c3ccc4c(/C=C/c5ccccn5)n[nH]c4c3)c2)on1 |  | beta t1/2 [1]: Bld
23 | 3.4 h | 19.9 h | O=C(Nc1cc(Nc2ccc3c(/C=C/c4ccccc4)n[nH]c3c2)ccc1F)c1ccccc1 |  | 
24 |  |  | O=C(Nc1cccc(Nc2ccc3c(/C=C/c4ccccc4)n[nH]c3c2)c1)c1cccc2[nH]ccc12 | 94% | 
25 |  |  | Cc1nc(S)sc1CC(=O)Nc1cccc(Nc2ccc3c(/C=C/c4ccccc4)n[nH]c3c2)c1 | 19% | 
26 |  |  | O=C(Cc1cccnc1)Nc1cccc(Oc2ccc3c(/C=C/c4ccccc4)n[nH]c3c2)c1 | 76% | 
27 |  |  | C[C@@H](CC(=O)Nc1cccc(C(=O)c2ccc3c(/C=C/c4ccccc4)n[nH]c3c2)c1)c1ccccc1 | 52% | 
28 |  |  | Cc1cc(C(=O)Nc2cccc(Nc3ccc4c(/C=C/c5ccccc5)n[nH]c4c3)c2)oc(=O)c1 | -8% | 
29 |  |  | CC(C)=CC1C(C(=O)Nc2cccc(Nc3ccc4c(/C=C/c5ccccc5)n[nH]c4c3)c2)C1(C)C (stereo unspecified) | 16% | 
30 |  |  | O=C(c1cccc(NC(=O)[C@H]2CCC[C@H]2O)c1)c1ccc2c(/C=C/c3ccccc3)n[nH]c2c1 | 39% | 
31 |  |  | O=C(c1cccc(NC(=O)C2C[C@H]3C[C@@H]2CCC3O)c1)c1ccc2c(/C=C/c3ccccc3)n[nH]c2c1 (stereo partly specified) | 27% | 
32 |  |  | O=C(Nc1cccc(Oc2ccc3c(/C=C/c4ccccc4)n[nH]c3c2)c1)C1C[C@H]2C[C@@H]1CCC2O (stereo partly specified) | 52% | 
33 |  |  | O=C(Cc1c(F)cccc1F)Nc1cccc(Nc2ccc3c(/C=C/c4ccccc4)n[nH]c3c2)c1 | 40% | 
34 | 0.9 h | 1.6 h | O=C(Nc1cccc(Cl)c1)c1ccccc1Sc1ccc2c(/C=C/c3ccccn3)n[nH]c2c1 |  | 
35 |  |  | O=C(Nc1cccc(Oc2ccc3c(/C=C/c4ccccc4)n[nH]c3c2)c1)C1CC2CC(O)C1C2 (stereo unspecified) | 38% | 
36 |  |  | COc1cccc(/C=C/C(=O)Nc2cccc(C(=O)c3ccc4c(/C=C/c5ccccc5)n[nH]c4c3)c2)c1 | 35% | 
37 |  |  | O=C(Nc1cccc(Nc2ccc3c(/C=C/c4ccccc4)n[nH]c3c2)c1)c1cc(=O)cco1 | 17% | 
38 |  |  | CC(=O)N1CCC(C(=O)Nc2cccc(Oc3ccc4c(/C=C/c5ccccc5)n[nH]c4c3)c2)CC1 | 42% | 
39 | 0.7 h | 1.2 h | C[C@@H]1C[C@H]1C(=O)Nc1cccc(C(=O)c2ccc3c(/C=C/c4ccccn4)n[nH]c3c2)c1 (racemic) |  | 
40 |  |  | O=C(Cn1ccc2ccccc21)Nc1cccc(Oc2ccc3c(/C=C/c4ccccc4)n[nH]c3c2)c1 | 52% | 
41 |  |  | O=C(Nc1cccc(Oc2ccc3c(/C=C/c4ccccc4)n[nH]c3c2)c1)c1cc(=O)cco1 | 18% | 
42 |  |  | O=C(Nc1cccc(C(=O)c2ccc3c(-c4nc5cccnc5[nH]4)n[nH]c3c2)c1)c1ccccc1 |  | beta t1/2 [1]: Bld

Row | half-life [1] | half-life [2] | SMILES | inhibition at 0.01 µM [4] | also measured
43 |  |  | CN(C)C(=S)SCC(=O)Nc1cccc(C(=O)c2ccc3c(/C=C/c4ccccc4)n[nH]c3c2)c1 | 25% | 
44 |  |  | O=C1NCC(C(=O)Nc2cccc(C(=O)c3ccc4c(/C=C/c5ccccc5)n[nH]c4c3)c2)N1 (stereo unspecified) | 21% | 
45 |  |  | COc1cccc(/C=C/C(=O)Nc2cccc(Nc3ccc4c(/C=C/c5ccccc5)n[nH]c4c3)c2)c1 | 30% | 
46 |  |  | CN1CSCCC1C(=O)Nc1cccc(Oc2ccc3c(/C=C/c4ccccc4)n[nH]c3c2)c1 (stereo unspecified) | 23% | 
47 |  |  | O=C(Cc1ccccc1)C(=O)Nc1cccc(Oc2ccc3c(/C=C/c4ccccc4)n[nH]c3c2)c1 | 25% | 
48 |  |  | C[C@@]12C[C@H]3C[C@H]1C[C@@]3(C(=O)Nc1cccc(Nc3ccc4c(/C=C/c5ccccc5)n[nH]c4c3)c1)C2 | 15% | 
49 |  |  | O=C(Cn1ccc2ccccc21)Nc1cccc(Nc2ccc3c(/C=C/c4ccccc4)n[nH]c3c2)c1 | -7% | 
50 |  |  | O=C(Nc1cccc(C(=O)c2ccc3c(/C=C/c4ccccc4)n[nH]c3c2)c1)C1=C[C@@H](O)[C@@H](O)[C@H](O)C1 | -20% | 
51 |  | 1.5 h | C=C(C)CNC(=O)c1ccccc1Sc1ccc2c(/C=C/c3ccccn3)n[nH]c2c1 |  | half-life [3]: 14.6 h
52 |  |  | O=C(/C=C/C1C[C@H]2C=C[C@H]1C2)Nc1cccc(C(=O)c2ccc3c(/C=C/c4ccccc4)n[nH]c3c2)c1 (stereo partly specified) | 37% | 
53 |  |  | CC1(C)C(C(=O)Nc2cccc(Oc3ccc4c(/C=C/c5ccccc5)n[nH]c4c3)c2)C1(C)C | 71% | 
54 |  |  | O=C1CCC(C(=O)Nc2cccc(C(=O)c3ccc4c(/C=C/c5ccccc5)n[nH]c4c3)c2)CC1 | 10% | 
55 |  |  | CC(C)CC(O)C(=O)Nc1cccc(Oc2ccc3c(/C=C/c4ccccc4)n[nH]c3c2)c1 (stereo unspecified) | 69% | 
56 |  |  | Cc1ccc(C2(C(=O)Nc3cccc(C(=O)c4ccc5c(/C=C/c6ccccc6)n[nH]c5c4)c3)CC2)cc1 | 0% | 
57 |  |  | COc1cccc(CC(=O)Nc2cccc(Nc3ccc4c(/C=C/c5ccccc5)n[nH]c4c3)c2)c1 | 34% | 
58 |  |  | O=C1CC[C@H](C(=O)Nc2cccc(Oc3ccc4c(/C=C/c5ccccc5)n[nH]c4c3)c2)N1 | 32% | 
59 |  |  | O=C(Nc1cccc(Nc2ccc3c(/C=C/c4ccccc4)n[nH]c3c2)c1)c1cccc2cc[nH]c12 | 94% | 
60 |  |  | O=C(CC1CC2CCC1C2)Nc1cccc(C(=O)c2ccc3c(/C=C/c4ccccc4)n[nH]c3c2)c1 (stereo unspecified) | 75% | 
61 | 3 h | 3 h | O=C(Nc1cccc(C(=O)c2ccc3c(-c4nc5ccccc5[nH]4)n[nH]c3c2)c1)c1ccccc1 |  | 
62 |  |  | O=C(Cc1cc(F)cc(F)c1)Nc1cccc(Nc2ccc3c(/C=C/c4ccccc4)n[nH]c3c2)c1 | 77% | 
63 |  |  | O=C(Nc1cccc(Nc2ccc3c(/C=C/c4ccccc4)n[nH]c3c2)c1)[C@H]1CCC[C@H]1O | -4% | 

Row | SMILES | half-life [1] | half-life [2] | inhibition at 0.01 µM [4] | also measured
64 | CC(C)ONC(=O)c1ccccc1Sc1ccc2c(/C=C/c3ccccn3)n[nH]c2c1 | 1.1 h |  |  | 
65 | O=C(NC1CC1)c1ccccc1Sc1ccc2c(/C=C/c3ccccn3)n[nH]c2c1 | 0.7 h | 1 h |  | 
66 | Cn1cccc1C(=O)NNC(=O)c1ccccc1Sc1ccc2c(/C=C/c3ccccn3)n[nH]c2c1 | 0.9 h | 1.8 h |  | 
67 | O=C(Nc1cccc(C(=O)c2ccc3c(/C=N/n4cccc4)n[nH]c3c2)c1)c1ccccc1 | 3 h | 2 h |  | 
68 | O=C(c1cccc(NC(=O)c2ccccn2)c1)c1ccc2c(/C=C/c3ccccn3)n[nH]c2c1 | 0.9 h | 2.1 h |  | 
69 | CC(=O)c1ccc(C(=O)Nc2cccc(C(=O)c3ccc4c(/C=C/c5ccccn5)n[nH]c4c3)c2)s1 | 1.6 h | 1.6 h |  | 
70 | O=C(Nc1cccc(C(=O)c2ccc3c(/C=C/c4ccccc4)n[nH]c3c2)c1)c1ccncc1 | 1.2 h | 1.6 h |  | 
71 | O=C(Nc1ccccc1)c1ccccc1Sc1ccc2c(/C=C/c3ccccn3)n[nH]c2c1 | 3 h | 1.2 h |  | 
